Measurements: patent US6294547A, “Naphthyridine deratives or salts thereof” (Nippon Kayaku Kabushiki Kaisha, priority 1997, dated 2001)
Counter-ions that a name gives are not always drawn.

Assays:
[1] = system: Mouse; test: Toxic effect on mouse, intravenous; assay type: in vivo
Excerpt: The toxicity of the compounds of the present invention was investigated.

[2] = system: NK-2 receptors; test: Inhibitory effect on bronchoconstriction caused by stimulation of NK-2 receptors (Nle10 neurokinin A (4-10)); assay type: in vivo, Hartley strain male guinea pigs
Protocol: There were used non-treated Hartley strain male guinea pigs and Hartley strain male guinea pigs received to active sensitization by subcutaneous administration of 30 mg/kg of ovalbumin 14 to 21 days before. The guinea pigs were anesthetized with pentobarbital and a tube was inserted into the trachea of each guinea pig. The guinea pigs were subjected to positive pressure respiration by means of an artificial respiratory apparatus at 10 ml/kg and 60 times/minute. The pressure in the edge of the tube in the trachea was measured as an indication of bronchoconstriction. Spontaneous respiration was inhibited by administering succinylcholine. The non-treated guinea pigs were repeatedly and intravenously injected with 2 nmol/kg of Nle10 neurokinin A (4-10), a specific stimulating agent for NK-2 receptors at intervals of 10 minutes. After the bronchoconstriction thus caused became stable, each drug was administered intravenously, orally or in duodenum. Nle10 neurokinin A (4-10) was intravenously injected again 3 minutes after the intravenous administration or 50 minutes after the oral administration or the administration in duodenum. The rate of inhibition by the drug was determined relative to the bronchoconstriction before the drug administration.

[3] = system: NK-2 receptors; test: Antagonism for NK-2 receptors (neurokinin A induced contraction of isolated trachea); assay type: cell-based, Hartley strain male guinea pigs; settings: concentration 5 × 10^-9 M; neurokinin A 1×10^-9 M; guinea pig trachea; 110 min incubation
Protocol: Hartley strain male guinea pigs were killed by a blow on the head and blood-letting, and the tracheas were isolated. Specimens each composed of five slices of the trachea were prepared, and suspended at a tension of 0.5 gw in a magunus bath with an internal volume of 15 ml containing Krebs-Henseleit solution of 37° C. while introducing a mixed gas of 95% O2 +5% CO2 into the bath. As the Krebs-Henseleit solution, that containing indomethacin ([…]) was used for preventing the participation of intrinsic prostaglandins. After confirming the maximum degree of contraction of each specimen by the use of methacholine,a drug or a solvent therefor was added to the solution, followed by incubation for 110 minutes, and neurokinin A (1×10^-9 M) was allowed to act on the specimen. Phosphoramidon (1×10^-5 M) for inhibiting the degradation of neurokinin A and (±)CP-96345 (3×10^-7 M) for preventing the participation of NK-1 receptors were added 30 minutes and 20 minutes, respectively, before the addition of neurokinin A. The degree of contraction due to neurokinin A was converted to the percentage based on the maximum degree of contraction of the specimen, and then the rate of inhibition by the drug was determined relative to the percentage of contraction of the other specimen used in the case of adding the solvent.

[4] = system: bronchoconstriction caused by inhalation of an antigen; test: Inhibitory effect on bronchoconstriction caused by inhalation of antigen (ovalbumin); assay type: in vivo, Hartley strain male guinea pigs (active sensitization); settings: 10 μmol/kg oral, 50 min before antigen inhalation; measured 8 min after
Protocol: There were used non-treated Hartley strain male guinea pigs and Hartley strain male guinea pigs received to active sensitization by subcutaneous administration of 30 mg/kg of ovalbumin 14 to 21 days before. The guinea pigs were anesthetized with pentobarbital and a tube was inserted into the trachea of each guinea pig. The guinea pigs were subjected to positive pressure respiration by means of an artificial respiratory apparatus at 10 ml/kg and 60 times/minute. The pressure in the edge of the tube in the trachea was measured as an indication of bronchoconstriction. Spontaneous respiration was inhibited by administering succinylcholine. […] The rate of inhibition by the drug was determined relative to the bronchoconstriction before the drug administration.
To the guinea pigs received to active sensitization, 4.6 μmol/kg of phosphoramidon was intravenously administered, and 15 minutes after the administration, these guinea pigs were allowed to inhale for 2 minutes an aerosol of an antigen ovalbumin solution (2 mg/ml) produced with an ultrasonic nebulizer, to cause bronchoconstriction. […] The inhibition rate of the drug-treated group was determined relative to the bronchoconstriction of the solvent-treated group measured 8 minutes after the antigen inhalation.

[5] = molecular target: T1, NK-3 receptors (Cavia porcellus, UniProt P30098); test: Antagonism for NK-3 receptors (senktide induced contraction of isolated ileum); assay type: cell-based, Hartley strain male guinea pigs; settings: guinea pig ileum; senctide 1×10^-9 M; 35 min incubation; read-out: IC50 of a drug on senctide induced contraction
T1 construct: the ileums were isolated; from tissue; host or cells: isolated ileum of male Hartley guinea pigs
T1 sequence (P30098 1-440): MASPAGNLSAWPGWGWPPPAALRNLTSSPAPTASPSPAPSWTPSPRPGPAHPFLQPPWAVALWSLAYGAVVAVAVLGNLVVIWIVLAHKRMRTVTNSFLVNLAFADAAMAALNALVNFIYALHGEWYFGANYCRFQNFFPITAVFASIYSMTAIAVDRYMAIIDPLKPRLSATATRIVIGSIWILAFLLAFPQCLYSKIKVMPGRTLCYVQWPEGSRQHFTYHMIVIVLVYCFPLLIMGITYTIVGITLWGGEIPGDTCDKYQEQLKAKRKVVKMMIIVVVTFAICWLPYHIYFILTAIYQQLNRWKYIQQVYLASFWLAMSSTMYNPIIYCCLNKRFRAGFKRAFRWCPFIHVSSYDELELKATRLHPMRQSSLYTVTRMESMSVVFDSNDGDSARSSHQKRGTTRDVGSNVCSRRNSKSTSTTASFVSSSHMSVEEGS
Protocol: Hartley strain male guinea pigs were killed by a blow on the head and blood-letting, and the ileums were isolated. A specimen of about 3 cm in length was prepared and then suspended at a tension of 0.5 gw in a magunus bath with an internal volume of 15 ml containing Krebs-Henseleit solution of 37° C. while introducing a mixed gas of 95% O2 and 5% CO2 into the bath. As the Krebs-Henseleit solution, that containing atropine (1×10^-6 M) and indomethacin (5×10^-6 M) was used for preventing the participation of intrinsic acetylcholine and prostaglandins. Senctide (1×10^-9 M), a specific stimulating agent for NK-3 receptors was repeatedly allowed to act on the specimen at intervals of 50 minutes. After the percentage of contraction due to senctide became constant, a drug was added to the solution to each of various concentrations, followed by incubation for 35 minutes, and senctide was allowed to act on the specimen again. The rate of inhibition by the drug was determined relative to the percentage of contraction immediately before the addition of the drug, and the 50% inhibitory concentration (IC50) was determined by means of a regression line.

## CN(CC(CCN1CCc2nc3c(cc2C1)CCCC3)c1ccc(Cl)c(Cl)c1)C(=O)c1ccccc1 (single isomer, unassigned) [Example 25, 2-[(-)-4-(N-benzoyl-N-methyl)amino-3-(3,4-dichlorophenylbutyll-1,2,3,4,6,7,8,9-octahydro-benzo[b][1,6]naphthyridine fumarate]
[1]; 22 μmol/kg intravenous
  Toxicity: None
[1]; 65 μmol/kg intravenous
  Toxicity: None
[2]; 1 μmol/kg intravenous, 3 min after administration
  Inhibition (rate), stimulation of NK-2 receptors: 94.2%
[2]; 8 μmol/kg oral, 50 min after administration
  Inhibition (rate), stimulation of NK-2 receptors: 67.2%
[3]
  Inhibition rate, neurokinin A induced contraction: 89.1%
[4]
  Inhibition (rate), inhalation of antigen: 54.1%
[5]
  IC50: 0.18 µM
